Non-standard residues stand in square brackets, D forms with d. Residues, ends and D or L forms follow the SMILES beside them. pY = N[C@@H](Cc1ccc(OP(=O)(O)O)cc1)C(=O)O
Columns and labels:
Experiment in all cases: biochemical
Assay type in all cases: binding
MATK = target: T1, MATK (Homo sapiens, UniProt P42679)
T1 construct: the DNA-tagged SH2 domain concentrations used in this study were <0.1 nM; made in house; host or cells: HEK293 (transient transfection, unpurified extract)
T1 sequence (P42679 122-211 limits assumed): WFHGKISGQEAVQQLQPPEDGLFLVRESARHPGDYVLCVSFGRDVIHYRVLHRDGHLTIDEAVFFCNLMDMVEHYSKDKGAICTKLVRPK

SRC = target: T2, SRC (Homo sapiens, UniProt P12931)
T2 construct: made in house; host or cells: HEK293 (transient transfection), unpurified extract
T2 sequence (P12931 whole entry): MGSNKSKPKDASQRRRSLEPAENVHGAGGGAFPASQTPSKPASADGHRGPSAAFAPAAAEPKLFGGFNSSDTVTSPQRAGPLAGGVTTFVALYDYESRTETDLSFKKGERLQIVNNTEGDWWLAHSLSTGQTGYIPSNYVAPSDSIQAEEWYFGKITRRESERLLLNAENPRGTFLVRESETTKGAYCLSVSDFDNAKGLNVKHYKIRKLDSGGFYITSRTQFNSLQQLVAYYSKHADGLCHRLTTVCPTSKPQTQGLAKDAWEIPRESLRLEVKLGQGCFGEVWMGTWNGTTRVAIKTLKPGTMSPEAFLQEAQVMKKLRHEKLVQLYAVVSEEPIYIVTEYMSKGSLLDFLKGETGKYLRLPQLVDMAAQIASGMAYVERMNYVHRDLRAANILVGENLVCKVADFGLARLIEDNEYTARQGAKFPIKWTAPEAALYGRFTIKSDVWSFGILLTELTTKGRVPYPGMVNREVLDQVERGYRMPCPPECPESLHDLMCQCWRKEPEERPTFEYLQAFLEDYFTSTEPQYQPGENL

HCK = target: T3, HCK (Homo sapiens, UniProt P08631)
T3 construct: the DNA-tagged SH2 domain concentrations used in this study were <0.1 nM; made in house; host or cells: HEK293 (transient transfection, unpurified extract)
T3 sequence (P08631 144-241 limits assumed): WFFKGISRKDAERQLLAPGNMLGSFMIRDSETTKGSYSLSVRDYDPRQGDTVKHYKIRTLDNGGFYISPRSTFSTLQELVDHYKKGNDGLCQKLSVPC

LCK = target: T4, LCK (Homo sapiens, UniProt P06239)
T4 construct: the DNA-tagged SH2 domain concentrations used in this study were <0.1 nM; made in house; host or cells: HEK293 (transient transfection, unpurified extract)
T4 sequence (P06239 127-224 limits assumed): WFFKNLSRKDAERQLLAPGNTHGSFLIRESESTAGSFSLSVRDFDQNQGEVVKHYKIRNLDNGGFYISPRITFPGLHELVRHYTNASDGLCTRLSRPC

Row | SMILES | Kd (MATK) [nM] | Kd (SRC) [nM] | Kd (HCK) [nM] | Kd (LCK) [nM]
1 | CC[C@H](C)[C@H](NC(=O)[C@H](CS)NC(=O)[C@H](CCCNC(=N)N)NC(C)=O)C(=O)N[C@@H](CC(N)=O)C(=O)N[C@@H](Cc1ccc(OP(=O)(O)O)cc1)C(=O)N[C@H](C(=O)N[C@@H](Cc1ccccc1)C(=O)N[C@@H](Cc1ccccc1)C(=O)N1CCC[C@H]1C(=O)N[C@@H](CO)C(=O)N[C@@H](CC(C)C)C(=O)N[C@@H](CCCCN)C(=O)N1CCC[C@H]1C(=O)N[C@@H](CO)C(=O)N[C@@H](CO)C(N)=O)C(C)C | 555 ± 128 | – | – | –
2 | CC[C@H](C)[C@H](NC(=O)[C@@H]1CCCN1C(=O)[C@@H](NC(=O)[C@H](CCC(=O)O)NC(=O)[C@H](CCC(=O)O)NC(=O)[C@H](Cc1ccc(OP(=O)(O)O)cc1)NC(=O)[C@H](CCC(N)=O)NC(=O)[C@@H]1CCCN1C(=O)[C@H](CCC(=O)O)NC(C)=O)[C@@H](C)CC)C(=O)N[C@@H](Cc1ccc(O)cc1)C(=O)N[C@@H](CC(C)C)C(N)=O (Ac-EPQ[pY]EEIPIYL-NH2) | – | 2710 ± 1950 | 1440 ± 475 | 97 ± 51.6

From article PMC12951562, “SH2scan: Mapping SH2 Domain-Ligand Binding Selectivity for Inhibitors and Degraders” (Journal of Medicinal Chemistry, 2026)
